The assay concerns the target T1, rhuman cathepsin K (Homo sapiens, UniProt P43235).
T1 sequence (P43235 115-329): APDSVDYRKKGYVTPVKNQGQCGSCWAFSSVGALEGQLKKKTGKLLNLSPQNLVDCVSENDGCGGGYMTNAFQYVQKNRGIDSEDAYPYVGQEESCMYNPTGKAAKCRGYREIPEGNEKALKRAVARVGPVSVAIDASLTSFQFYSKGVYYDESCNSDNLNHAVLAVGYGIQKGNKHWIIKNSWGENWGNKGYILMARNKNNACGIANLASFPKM
Nature of the assay: Assay for identification of Cathepsin K inhibitors (QFRET, cleavage of Z-Phe-Arg-AMC). Type of assay: biochemical. To be noted: 0.5 nM rhuman cathepsin K, Z-Phe-Arg-AMC substrate, 30 min pre-incubation, 1 h incubation at room temperature, mean of two separate occasions; for IC50: read-out: CatK FRET Mean pIC50 (converted). How it is done:
0.5 nM [final] rhuman cathepsin K in phosphate buffer was added to a 384-well black microtitre plate containing investigative compounds. The enzyme and compound were pre-incubated at room temperature for 30 minutes before the addition of […] [final] Z-Phe-Arg-AMC synthetic substrate in phosphate buffer. The plates were covered and incubated for 1 h at room temperature, protected from light. Following the incubation the reaction was stopped with 7.5% [final]acetic acid. Relative fluorescence was measured using the Ultra plate reader at a wavelength of 360 nm excitation and 425 nm emission.
Data was corrected for background fluorescence (minimum controls without enzyme).

Take `CCOc1cccc2c3c([nH]c12)CCN(C(=O)[C@@H]1CCCC[C@H]1C(=O)NC1(C#N)CC1)C3` [Example 25, (1R,2R)-N-(1-cyanocyclopropyl)-2-[(6-ethoxy-1,3,4,5-tetrahydro-2H-pyrido[4,3-b]indol-2-yl)carbonyl]cyclohexanecarboxamide]: the IC50 was 0.899 nM. On the same count and under the same terms, with `Cn1c2c(c3cccnc31)CN(C(=O)[C@@H]1CCCC[C@H]1C(=O)NC1(C#N)CC1)CC2` [Example 21, (1R,2R)-N-(1-cyanocyclopropyl)-2-[(9-methyl-5,7,8,9-tetrahydro-6H-pyrrolo[2,3-b:4,5-c′]dipyridin-6-yl)carbonyl]cyclohexanecarboxamide] the figure was 1.46 nM; with `N#CC1(NC(=O)[C@@H]2CCCC[C@H]2C(=O)N2CCc3[nH]c4ccc(F)cc4c3C2)CC1` [Example 1, (1R,2R)-N-(1-cyanocyclopropyl)-2-[(8-fluoro-1,3,4,5-tetrahydro-2H-pyrido[4,3-b]indol-2-yl)carbonyl]cyclohexanecarboxamide], 0.849 nM. On the same count and under the same terms, the same measure for `COc1cc(F)cc2c3c([nH]c12)CCN(C(=O)[C@@H]1CCCC[C@H]1C(=O)NC1(C#N)CC1)C3` [Example 45, (1R,2R)-N-(1-cyanocyclopropyl)-2-(8-fluoro-6-methoxy-2,3,4,5-tetrahydro-1H-pyrido[4,3-b]indole-2-carbonyl)cyclohexanecarboxamide]: 0.807 nM. Take `N#CC1(NC(=O)[C@@H]2CCCC[C@H]2C(=O)N2CCc3[nH]c4ccc(Cl)cc4c3C2)CC1` [Example 2, (1R,2R)-2-[(8-chloro-1,3,4,5-tetrahydro-2H-pyrido[4,3-b]indol-2-yl)carbonyl]-N-(1-cyanocyclopropyl)cyclohexanecarboxamide]: the IC50 was 2.99 nM. The same measure, in the same setting: the same measure for `N#CC1(NC(=O)[C@@H]2CCCC[C@H]2C(=O)N2CCc3[nH]c4c(O)cccc4c3C2)CC1` [Example 33, (1R,2R)-N-(1-cyanocyclopropyl)-2-[(6-hydroxy-1,3,4,5-tetrahydro-2H-pyrido[4,3-b]indol-2-yl)carbonyl]cyclohexanecarboxamide]: 1.03 nM; for `Cn1c2c(c3cc(F)ccc31)CN(C(=O)[C@@H]1CCCC[C@H]1C(=O)NC1(C#N)CC1)CC2` [Example 12, (1R,2R)-N-(1-cyanocyclopropyl)-2-[(8-fluoro-5-methyl-1,3,4,5-tetrahydro-2H-pyrido[4,3-b]indol-2-yl)carbonyl]cyclohexanecarboxamide]: 2.84 nM; for `N#CC1(NC(=O)[C@@H]2CCCC[C@H]2C(=O)N2CCc3[nH]c4c(OCCN5CCCC5)cccc4c3C2)CC1` [Example 38, (1R,2R)-N-(1-cyanocyclopropyl)-2-(6-(2-(pyrrolidin-1-yl)ethoxy)-2,3,4,5-tetrahydro-1H-pyrido[4,3-b]indole-2-carbonyl)cyclohexanecarboxamide]: 1.64 nM.

For the compound `N#CCOc1cccc2c3c([nH]c12)CCN(C(=O)[C@@H]1CCCC[C@H]1C(=O)NC1(C#N)CC1)C3` [Example 35, (1R,2R)-N-(1-cyanocyclopropyl)-2-{[6-(cyanomethoxy)-1,3,4,5-tetrahydro-2H-pyrido[4,3-b]indol-2-yl]carbonyl}cyclohexanecarboxamide], the IC50 is 0.558 nM. Take `N#CC1(NC(=O)[C@@H]2CCCC[C@H]2C(=O)N2CCc3c(c4ccccc4n3CC3CC3)C2)CC1` [Example 28, (1R,2R)-N-(1-cyanocyclopropyl)-2-[(5-cyclopropylmethyl-1,3,4,5-tetrahydro-2H-pyrido[4,3-b]indol-2-yl)carbonyl]cyclohexanecarboxamide]: the IC50 was 3.45 nM. On to `CS(=O)(=O)n1c2c(c3ccccc31)CN(C(=O)[C@@H]1CCCC[C@H]1C(=O)NC1(C#N)CC1)CC2` [Example 40, (1R,2R)-N-(1-cyanocyclopropyl)-2-[(5-methanesulphonyl-1,3,4,5-tetrahydro-2H-pyrido[4,3-b]indol-2-yl)carbonyl]cyclohexanecarboxamide], for which the IC50 was 10.8 nM. Consider `N#CC1(NC(=O)[C@@H]2CCCC[C@H]2C(=O)N2CCc3[nH]c4c5c(ccc4c3C2)OC(F)(F)O5)CC1` [Example 44, (1R,2R)-N-(1-cyanocyclopropyl)-2-(2,2-difluoro-7,8,9,10-tetrahydro-6H-[1,3]dioxolo[4,5-g]pyrido[4,3-b]indole-7-carbonyl)cyclohexanecarboxamide], for which the IC50 was 2.13 nM. For the compound “(1R,2R)-N-(1-cyanocyclopropyl)-2-[(6-methyl-1,3,4,5-tetrahydro-2H-pyrido[4,3-b]indol-2-yl)carbonyl]cyclohexanecarboxamide [Example 6]”, the “CatK FRET Mean pIC50” value amounted to 8.553. In the case of `N#CC1(NC(=O)[C@@H]2CCCC[C@H]2C(=O)N2CCc3[nH]c4c(F)cccc4c3C2)CC1` [Example 3, (1R,2R)-N-(1-cyanocyclopropyl)-2-[(6-fluoro-1,3,4,5-tetrahydro-2H-pyrido[4,3-b]indol-2-yl)carbonyl]cyclohexanecarboxamide], the IC50 is 0.767 nM. Consider `CS(=O)(=O)c1cccc2c3c([nH]c12)CCN(C(=O)[C@@H]1CCCC[C@H]1C(=O)NC1(C#N)CC1)C3` [Example 31, (1R,2R)-N-(1-cyanocyclopropyl)-2-{[6-(methylsulfonyl)-1,3,4,5-tetrahydro-2H-pyrido[4,3-b]indol-2-yl]carbonyl}cyclohexanecarboxamide], for which the IC50 was 17.4 nM.

The values are drawn from patent US8008279B2, “Compound—827” (AstraZeneca AB, priority 2007, dated 2011).
